Entries after “also recorded” stand apart in the source; their conditions may differ.

From patent US7763644B2, “Imidazole derivatives, processes for preparing them and their uses” (UCB Pharma, S.A., priority 2003, dated 2010) come the findings set out here.

In assay [1] the target is T1, hSV2C (Homo sapiens, UniProt Q496J9).
T1 construct: expressed in transfected cells; host or cells: COS-7 (transient transfection)
T1 sequence (Q496J9 1-727): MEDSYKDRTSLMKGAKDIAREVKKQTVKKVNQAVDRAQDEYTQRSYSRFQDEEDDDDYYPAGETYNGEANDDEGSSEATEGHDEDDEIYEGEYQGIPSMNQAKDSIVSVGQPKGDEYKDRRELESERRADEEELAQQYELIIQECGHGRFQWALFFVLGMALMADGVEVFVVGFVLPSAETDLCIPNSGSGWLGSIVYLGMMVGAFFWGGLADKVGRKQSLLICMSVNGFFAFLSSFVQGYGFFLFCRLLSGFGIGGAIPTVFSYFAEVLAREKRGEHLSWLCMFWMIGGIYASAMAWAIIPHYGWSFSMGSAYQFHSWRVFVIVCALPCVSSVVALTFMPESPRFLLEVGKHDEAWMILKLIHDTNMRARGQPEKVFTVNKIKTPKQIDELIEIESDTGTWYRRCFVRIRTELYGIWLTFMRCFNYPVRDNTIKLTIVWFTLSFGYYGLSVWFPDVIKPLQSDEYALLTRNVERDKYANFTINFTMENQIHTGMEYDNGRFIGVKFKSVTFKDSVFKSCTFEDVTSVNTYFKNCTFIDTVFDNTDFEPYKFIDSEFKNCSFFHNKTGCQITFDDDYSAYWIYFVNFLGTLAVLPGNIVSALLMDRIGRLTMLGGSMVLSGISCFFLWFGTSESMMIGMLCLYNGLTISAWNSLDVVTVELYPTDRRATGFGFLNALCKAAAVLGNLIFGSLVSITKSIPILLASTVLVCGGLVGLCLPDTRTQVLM
Briefly: Radioligand binding to COS-7 cells transfected with SV2C. The conditions noted are these: displaced by excess levetiracetam, FIG. 5. An excerpt:
(§1) This confirms that labeled-compound Z has poor affinity for utilizing as a probe against SV2C, and that labeled-compound 7 is a preferred probe to utilize in screening against SV2C.

A further assay has as its target human SV2A (Homo sapiens, UniProt Q7L0J3). The assay is described as follows: Radioligand binding to SV2A under standard conditions.
From the text: as §1

For another assay, the target named is T2, LBS/SV2A (Rattus norvegicus, UniProt Q02563).
T2 construct: from tissue; host or cells: rat brain (crude membranes)
Briefly: Photolabelling of LBS in rat brain membranes, SDS-PAGE. The class given is binding. The conditions noted are these: UV irradiated rat brain membranes, gel slicing. The text has this: Y-axis represents the radioactivity (DPM) in gel slices and X-axis represents the gel slice number. Each number and arrow in the graph represents the position and the size in kilodaltons of molecular weight standards.
This example provides a photoactivable ligand for labelling SV2A/LBS and its detection in biological samples. This ligand was designed to cross-link to the LBS/SV2A with an azidophenyl motif capable of forming a covalent complex with the protein upon UV light irradiation.

The subject of a further assay is untransfected cells. Briefly: Radioligand binding to untransfected COS-7 cells. The conditions noted are these: FIG. 5, bars 2.
The target in another assay is T3, LBS (Rattus norvegicus, UniProt Q02563).
T3 construct: from tissue; host or cells: rat brain (crude membranes)
Briefly: Competition binding curves against [^3H]-compound 7, rat brain membranes. As for the experimental part: FIGS. 2a and 2b depict competition binding curves showing that compound 7 binds to LBS with about 30 fold higher affinity than levetiracetam. […] (M). Test drugs are levetiracetam (2a) and compound 7 (2b).
Binding experiments were conducted on crude rat brain membranes at 4° C. as described in Noyer M. et al. (Euro. J. Pharmacol. (1995), 286, 137-146). Incubation time for equilibrium studies was 120 min. […] The Bmax being similar to the value estimated using [^3H]-L059 as radioligand in similar membrane preparations (5 pmol/mg protein).

The target in assay [2] is T1, hSV2C. Briefly: IC50 of unlabelled ligands against SV2C, [^3H]-compound 7 as probe. Format: binding. Conditions: [^3H]-compound 7 as labeled probe, FIG. 6.
From the text: (M). Depicted are the IC50 curves of compound 7 binding to hSV2A (x) and hSV2C (□), and compound Z binding to hSV2A (▪) and hSV2C (⋄).
as §1

T3 sequence (Q02563 whole entry): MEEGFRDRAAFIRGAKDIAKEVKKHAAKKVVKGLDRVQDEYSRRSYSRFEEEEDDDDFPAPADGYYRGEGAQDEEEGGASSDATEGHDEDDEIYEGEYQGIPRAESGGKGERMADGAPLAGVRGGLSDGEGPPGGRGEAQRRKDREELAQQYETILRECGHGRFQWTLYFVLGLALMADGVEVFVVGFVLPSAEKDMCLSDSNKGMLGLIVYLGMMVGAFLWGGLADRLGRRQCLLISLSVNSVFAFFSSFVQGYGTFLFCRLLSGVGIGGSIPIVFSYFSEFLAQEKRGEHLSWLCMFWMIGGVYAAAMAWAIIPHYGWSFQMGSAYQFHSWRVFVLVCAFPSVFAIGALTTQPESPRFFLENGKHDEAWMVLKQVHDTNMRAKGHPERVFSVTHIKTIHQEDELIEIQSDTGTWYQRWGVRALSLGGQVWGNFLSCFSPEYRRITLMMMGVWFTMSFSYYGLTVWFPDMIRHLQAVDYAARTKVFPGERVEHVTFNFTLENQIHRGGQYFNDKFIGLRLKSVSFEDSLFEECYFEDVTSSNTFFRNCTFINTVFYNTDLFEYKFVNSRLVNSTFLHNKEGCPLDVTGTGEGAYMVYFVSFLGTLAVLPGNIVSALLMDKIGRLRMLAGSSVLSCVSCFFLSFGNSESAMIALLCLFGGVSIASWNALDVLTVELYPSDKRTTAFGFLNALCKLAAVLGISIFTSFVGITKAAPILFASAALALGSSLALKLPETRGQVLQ
T2 sequence (Q02563 whole entry): as above
human SV2A, sequence (Q7L0J3 whole entry): as the sequence (Q02563 whole entry) above, with E53D, A62S, A71T, D144E, T154A, S440G, A482S, V572I, L634M counted along it

Take `CC[C@@H](C(N)=O)N1CC(c2cccc(N=[N+]=[N-])c2)CC1=O` (stereo partly drawn) [[^3H]-compound Z, reference compound]: on hSV2C [1], the “binding of radioligand to SV2C expressed in COS-7 cells” value is reported as “absence of specific binding; also recorded: lack of binding”. Also, the “binding of radioligand to SV2A” value at human SV2A is listed as “binds well”.
“[^3H]-(+)-4-(3-azido-2,4-difluorophenyl)-1-(1H-imidazol-1-ylmethyl)pyrrolidin-2-one [[^3H]-compound 7]”: on LBS/SV2A, the “size of the protein the radiolabel incorporates into” value is given as 90 kDa. The “binding of radioligand to SV2C expressed in COS-7 cells” value on hSV2C [1] is listed as “specific binding; also recorded: binds well”. The “specific binding of radioligand in untransfected cells” value with untransfected cells is “no specific binding”.
As usually defined, the Ki is a measure of affinity in units of concentration, obtained from inhibition or displacement. A high value points to lower affinity. Turning to `[N-]=[N+]=Nc1c(F)ccc(C2CC(=O)N(Cn3ccnc3)C2)c1F` (single isomer, unassigned; (+)) [compound 7, (+)-4-(3-azido-2,4-difluorophenyl)-1-(1H-imidazol-1-ylmethyl)pyrrolidin-2-one], the “fold higher affinity for LBS than levetiracetam (L059)” value at LBS (FIG. 2) is recorded as “about 30 fold”. At LBS (rat brain membranes), this compound had a Ki of 31.6 nM. Further, the “affinity to SV2C compared with SV2A (IC50 curves)” value at hSV2C [2] is “equivalent affinities”.
On to `CC[C@@H](C(N)=O)N1CC(c2cccc(N=[N+]=[N-])c2)CC1=O` (stereo partly drawn) [compound Z, (2S)-2-[4-(3-azidophenyl)-2-oxopyrrolidin-1-yl]butanamide], for which, on hSV2C [2], the “affinity to SV2C compared with SV2A (IC50 curves)” value is “different affinities; also recorded: much weaker affinity”.
